# How the values were obtained:
# NTP [1] = test: NTP immunoreactivity of Harlil peptides conjugated to rabbit IgG (Example 1); assay type: binding; details: peptides conjugated to maleimide activated Rabbit IgG
# Excerpt: The following Harlil sequences were synthesized (Synpep, Dublin Calif.) and conjugated to maleimide activated Rabbit IgG (Jackson Immunoresearch, West Grove Pa.) and assessed for their NTP immunoreactivity. […] (SEQ ID NOS 4-11, respectively, in order of appearance)
# Conjugation to carrier proteins was through a cysteine. Thus, peptides NTP-1 and NTP-2 produced mixed conjugate results because there is more than one cysteine residue. Therefore, for peptides NTP-5 and NTP-6, the secondary cysteine was blocked with ACM.
# NTP [2] = test: Affinity purification of NTP from AD patient urine on NTP-3 agarose column, activity by 7C Gold strip (Example 2); assay type: binding, human; details: pH 2 eluate, gel bands assayed with 7C Gold, activity only in 35-45 kD band
# Protocol: Preparation of the Urine Sample Containing NTP for Testing: The biological source of NTP used was the urine of a patient (BOU1) diagnosed with AD. Before application to the column material, the biological sample was processed according to the following protocol for processing of urine for AD testing: • 1. The urine was tested with an Ames Multistix™ (Bayer, Ind.). […] The urine was centrifuged at 3000×g for 15 minutes to remove cellular debris. • 3. The urine was filtered using a syringe through a 0.22 μm cellulose acetate filter, and the filtrate was brought to 0.05% azide. • 4. The resultant aliquot was placed in the top reservoir of an Amicon Centricon® YM-10 Millipore, and centrifuged at 3000×g for one hour. • 5. […] Protein Concentration: The protein concentration in the eluate was 108 μg, as determined by Coomassie Blue staining (BioRad, Hercules, Calif.). […] Protein concentration was 145 μg, as determined by Bicinchoninic Acid Kit (Cat. # 23223, BioRad). Absorbance corrected for the buffer at 280 nm was 390, indicating 390 μg of protein. The larger protein amount obtained with absorbance measurement is likely a result of the presence of a large amount of aromatic amino acids in NTP, which can cause overestimation of protein using this measurement technique. […]
# rabbit IgG = test: Precipitation of rabbit immunoglobulin by Harlil peptide (Example 3); details: start 3.4 mg RGG + 1 mg NTP-3, pH 7, dialyzed overnight
# Protocol: The purpose of this example was to show the self-aggregation ability of a Harlil peptide. The Harlil peptide NTP-3 forms disulfide bonds (because of the cysteine residue) and dimerizes at neutral pH. Since the dimerized peptide can bind two immunoglobulins, it can cause precipitation.
# 1 mg of the Harlil peptide NTP-3 in 1 mL of dimethylsulfoxide (DMSO) was added to 3.4 mg of rabbit IgG (Jackson Immunoresearch, West Grove, Pa.) at pH 7. The mixture was allowed to dialyze over night, and a clear white precipitate was observed the next morning. The precipitate was removed by centrifugation and the protein concentration of the supernatant was determined by absorbance at 280 nm using a Perkin Elmer spectrophotometer model Lambda 3B. Precipitation of immunoglobulin is prevented at a low pH, e.g., pH of 3.5 or less 3.5.
# [3] = test system: NTP3-RGG coated microtiter plate; test: Microtiter plate assay: inhibition of conjugate binding to Harlil peptide coated plate (Example 5); details: monomer (unconjugated) peptide; peroxidase conjugated rabbit IgG; FIG. 2
# Protocol: Preparation of Microtiter Plate: The Harlil peptide/immunoglobulin complex NTP3-RGG, in a ratio of 30:1 and prepared as in Example 4, was coated on an Immulon 4 microtiter plate (Dynex, Chantilly, Va.) at a concentration of 0.5 μg/well.
# Standards: Recombinant NTP in TBS (described in de la Monte et al., J. of Neuropath. Exp. Neurol., 55:1038-1050 (1996)). 0.01% azide (Nymox Pharm. Corp., Lot 4-7-98), was serially diluted into TBS. 100 μl of each dilution was incubated at pH 3.5 for one hour. The dilutions were then washed for fifteen minutes in TBS, 0.1% albumin, and 0.05% Tween 80. This was followed by 3 washes in TBS and 0.05% Tween 80. Microtiter Plate Assay: 100 μl of 1:8000 dilution of peroxidase conjugated rabbit IgG (Jackson Immunoresearch, West Grove, Pa.) was then added and allowed to react for 30 minutes. The microtiter plate was washed twice with TBS and 0.05% Tween 80, followed by the addition of 150 μl of […] (TMB) (Serex Inc., Maywood, N.J.). The mixture was then incubated for 10 min. and stopped with 50 μl of 2 N HCl. Absorbance was read in a SLT 340 ATTC spectrophotometer.
# NTP [4] = test: Protein G column pass-through of NTP positive and negative samples (Example 7); assay type: binding; details: NTP positive and negative samples passed through Protein G column; NTP not significantly reduced
# Excerpt: Protein G binds antibody through the Fc region. […] Specifically, since Harlil peptides recognize Harlil peptides, Harlil peptides recognize the Fc region of antibody, and Protein G recognizes the Fc region of antibody, this experiment determined whether Protein G recognizes NTP.
# Both an NTP positive and an NTP negative sample were passed through a Protein G column.
# Chain of NTP (as listed by the source): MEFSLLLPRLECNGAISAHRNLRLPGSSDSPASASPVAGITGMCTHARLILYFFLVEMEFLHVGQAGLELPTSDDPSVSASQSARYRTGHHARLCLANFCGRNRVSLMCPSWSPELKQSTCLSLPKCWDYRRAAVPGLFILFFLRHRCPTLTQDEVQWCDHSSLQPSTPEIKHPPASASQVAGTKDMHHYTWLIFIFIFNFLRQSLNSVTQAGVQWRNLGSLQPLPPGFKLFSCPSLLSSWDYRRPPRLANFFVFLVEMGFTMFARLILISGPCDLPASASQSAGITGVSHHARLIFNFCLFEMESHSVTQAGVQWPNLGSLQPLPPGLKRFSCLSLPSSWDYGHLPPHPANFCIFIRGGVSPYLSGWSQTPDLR
Molecule,NTP immunoreactivity (NTP [1]),binding of NTP by NTP-3 affinity column (NTP [2]),% Protein Precipitated (rabbit IgG),inhibition of conjugate binding to the plate [3],binding of Protein G to NTP (NTP [4])
C A R Y R T G H H A R L M (CARYRTGHHARLM) [NTP-3],good reactivity,selectively bound the NTP protein,39%,inhibits the binding of conjugate to the plate,–
"Protein G: Protein G, binds antibody through the Fc region; used as column (protein) TYKLILNGKTLKGETTTEAVDAATAEKVFKQYANDNGVDGEWTYDDATKTFTVTEKPEVIDASELTPAVTTYKLVINGKTLKGETTTKAVDAETAEKAFKQYANDNGVDGVWTYDDATKTFTVTE",–,–,–,–,does not bind to NTP

# Reference: patent US7259232B1, “Preferred segments of neural thread protein” (Nymox Pharmaceutical Corporation, priority 2000, dated 2007)
